Measurements as given in patent US20040122026A1, “Imidazolidine compounds” (Millennium Pharmaceuticals, Inc., priority 2002, published 2004).

Molecular target: T1, CXCR3 (Homo sapiens, UniProt P49682)
T1 construct: expressed in transfected cells; membrane preparation
T1 sequence (P49682 1-368): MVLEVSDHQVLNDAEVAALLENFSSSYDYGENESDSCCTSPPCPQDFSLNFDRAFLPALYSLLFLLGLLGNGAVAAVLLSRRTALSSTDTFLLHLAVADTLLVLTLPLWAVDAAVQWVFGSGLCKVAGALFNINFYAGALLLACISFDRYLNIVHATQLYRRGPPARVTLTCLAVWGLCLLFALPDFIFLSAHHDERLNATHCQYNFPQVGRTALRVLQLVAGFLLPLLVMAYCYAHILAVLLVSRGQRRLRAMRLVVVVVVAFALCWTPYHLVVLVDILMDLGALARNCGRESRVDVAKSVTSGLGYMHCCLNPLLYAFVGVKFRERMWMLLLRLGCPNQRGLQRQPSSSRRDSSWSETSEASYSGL
Assay: CXCR3/IP-10 radioligand binding (125I-IP-10 competition on CXCR3.L1/2 cell membranes)
Conditions: test compound 10 μmol/L, 125I-labeled IP-10 binding to CXCR3.L1/2 transfectant cell membranes
Excerpt: The activity of the compounds of the present invention can be assessed using a suitable assay, such as a receptor binding assay, a chemotaxis assay, an extracellular acidification assay or a calcium flux assay (see, for example, Hesselgesser et al., J. Biol. Chem., 273(25): 15687-15692 (1998) and WO 98/02151). For example, as described herein, small organic molecule antagonists of CXCR3/IP-10 binding have been identified utilizing cells engineered to express recombinant human CXCR3 (CXCR3.L1/2) and which bind ^125I-IP-10 and chemotax in response to IP-10, Mig, or I-TAC. Specifically, a high through-put receptor binding assay, which monitors ^125I-IP-10 biding to CXCR3.L1/2 cell membranes, was used to identify small molecule antagonists. Binding assays can be performed using other ligands of CXCR3, such as, Mig, and/or I-TAC.
CXCR3/IP-10 Radioligand Binding:
CXCR3.L1/2 Membrane Preparation:
CXCR3.L1/2 cells were pelleted by centrifugation and stored at −80° C. The cells were lysed by thawing and resuspending at about 1.5×10^7 cells/mL in a hypotonic buffer (5 mmol/L HEPES (pH 7.2), 2 mmol/L EDTA, 10 μg/mL each leupeptin, aprotinin, and chymostatin, and 100 μg/mL PMSF (all from Sigma, St. Louis)). Nuclei and cellular debris are removed by centrifugation ([…], at 4° C.) for 10 min. The supernatant was transferred to chilled centrifuge tubes (Nalge, Rochester, N.Y.) and the membrane fraction was recovered by centrifugation (25,000 g at 4° C.) for 45 min. The membrane pellet was resuspended in freezing buffer (10 mmol/L HEPES (pH 7.2), 300 mmol/L Sucrose, 5 μg/mL each of leupeptin, aprotinin, and chymostatin, and 10 μg/mL PMSF). The total protein concentration was determined using a coomassie blue staining protein concentration assay kit (BioRad). The membrane preparations are aliquoted and stored at −80° C. until time of use.
CXCR3/IP-10 binding was performed in 96-well polypropylene plates (Costar) in a final volume of 0.1 mL of HBB buffer (50 mmol/L Hepes pH 7.4, 1 mmol/L CaCl2, 5 mmol/L MgCl2, 0.02% sodium azide, 0.5% BSA (bovine serum albumin)), containing 1 to 5 μg CXCR3.L1/2 transfectant cell membrane protein and 0.05 to 0.2 nmol/L of ^125I-labeled IP-10 (NEN, Boston, Mass.). Competition binding experiments were performed by including variable concentrations of unlabeled IP-10 or test compound. Nonspecific binding was determined following the addition of a 250 nmol/L unlabelled IP-10. Samples were incubated for 60 min at room temperature, and bound and free tracer (^125I-labeled IP-10) were separated by filtration through 96-well GF/B filterplates presoaked in 0.3% polyethyleneimine. The filters were washed in HBB further supplemented with 0.5 mol/L NaCl, dried, and the amount of bound radioactivity determined by liquid scintillation counting. The competition is presented as the percent specific binding as calculated by 100×[(S−B)/(T−B)], where S is the radioactivity bound for each sample, B is background binding, and T is total bound in the absence of competitors. Duplicates were used throughout the experiments.

Work on Cc1cc(C)cc(CN2CCN(CCC(=O)N(CCCF)c3cccc(CN4CCCCC4)c3)C2=C(C#N)C#N)c1 [Compound 11, N-(3-Fluoropropyl)-N-[3-(piperidinomethyl)phenyl]-3-[3-(3,5-dimethylbenzyl)-2-dicyanomethylideneimidazolidin-1-yl]propionamide] yielded an inhibition at 10 µM (results Table 5) of 95%.
CCCN(C(=O)CCN1CCN(Cc2cc(Cl)cc(Cl)c2)C1=C(C#N)C#N)c1cc(CN2CCCCC2)ccc1Cl [Compound 19, N-Propyl-N-[2-chloro-5-(piperidinomethyl)phenyl]-3-[3-(3,5-dichlorobenzyl)-2-dicyanomethylideneimidazolidin-1-yl]propionamide] was tested, and the inhibition at 10 µM (results Table 6) was 101%.
CC(C)N(C(=O)CCN1CCN(Cc2cc(Cl)cc(Cl)c2)C1=C(C#N)C#N)c1cccc(CN2CCCCC2)c1 [Compound 17, N-Isopropyl-N-[3-(piperidinomethyl)phenyl]-3-[3-(3,5-dichlorobenzyl)-2-dicyanomethylideneimidazolidin-1-yl]propionamide] gave an inhibition at 10 µM (results Table 6) of 93%.
With Cc1cc(C)cc(CN2CCN(CCC(=O)N(c3cccc(CN4CCCCC4)c3)C3CCCCC3)C2=C(C#N)C#N)c1 [Compound 4, N-Cyclohexyl-N-[3-(piperidinomethyl)phenyl]-3-[3-(3,5-dimethylbenzyl)-2-dicyanomethylideneimidazolidin-1-yl]propionamide] the inhibition at 10 µM (results Table 5) was 109%.
CC(=O)OCCN(C(=O)CCN1CCN(Cc2cc(C)cc(C)c2)C1=C(C#N)C#N)c1cccc(CN2CCCCC2)c1 [Compound 6, N-(2-Acetoxyethyl)-N-[3-(piperidinomethyl)phenyl]-3-[3-(3,5-dimethylbenzyl)-2-dicyanomethylideneimidazolidin-1-yl]propionamide] showed an inhibition at 10 µM (results Table 5) of 93%.
For Cc1cccc(CN2CCN(CCC(=O)N(c3cccc(CN4CCCCC4)c3)C(C)C)C2=C(C#N)C#N)c1C [Compound 14, N-Isopropyl-N-[3-(piperidinomethyl)phenyl]-3-[3-(2,3-dimethylbenzyl)-2-dicyanomethylideneimidazolidin-1-yl]propionamide], the inhibition at 10 µM (results Table 6) was 105%.
For Cc1cc(C)cc(CN2CCN(CCC(=O)N(c3cccc(CN(CCO)CCO)c3)C(C)C)C2=C(C#N)C#N)c1 [Compound 26, N-Isopropyl-N-[3-(bis(2-hydroxyethyl)aminomethyl)phenyl]-3-[3-(3,5-dimethylbenzyl)-2-dicyanomethylideneimidazolidin-1-yl]propionamide], the inhibition at 10 µM (results Table 6) was 93%.
In the case of CC(C)N(C(=O)CCN1CCN(C2Cc3cccc4cccc2c34)C1=C(C#N)C#N)c1cccc(CN2CCCCC2)c1 (stereo not drawn) [Compound 15, N-Isopropyl-N-[3-(piperidinomethyl)phenyl]-3-[3-(1-acenaphthenyl)-2-dicyanomethylideneimidazolidin-1-yl]propionamide], the inhibition at 10 µM (results Table 6) is reported as 95%.
For Cc1cc(C)cc(CN2CCN(CCC(=O)N(C)c3cccc(CN4CCCCC4)c3)C2=C(C#N)C#N)c1 [Compound 1, N-Methyl-N-[3-(piperidinomethyl)phenyl]-3-[3-(3,5-dimethylbenzyl)-2-dicyanomethylideneimidazolidin-1-yl]propionamide], the inhibition at 10 µM (results Table 5) was 92%.
In the case of Cc1cc(C)cc(CN2CCN(CCC(=O)N(c3cccc(CN4CCN(C)CC4)c3)C(C)C)C2=C(C#N)C#N)c1 [Compound 23, N-Isopropyl-N-[3-(4-methyl-1-piperazinylmethyl)phenyl]-3-[3-(3,5-dimethylbenzyl)-2-dicyanomethylideneimidazolidin-1-yl]propionamide], the “% inhibition at 10 μmol/L” value (results Table 6) is reported as 92%.
Compound CCOC(=O)CN(C(=O)CCN1CCN(Cc2cc(C)cc(C)c2)C1=C(C#N)C#N)c1cccc(CN2CCCCC2)c1 [Compound 8, N-Ethoxycarbonylmethyl-N-[3-(piperidinomethyl)phenyl]-3-[3-(3,5-dimethylbenzyl)-2-dicyanomethylideneimidazolidin-1-yl]propionamide] has an inhibition at 10 µM (results Table 5) of 95%.
Compound CCCN(C(=O)CCN1CCN(Cc2cc(Cl)cc(Cl)c2)C1=C(C#N)C#N)c1cccc(CN2CCCCC2)c1C [Compound 20, N-Propyl-N-[2-methyl-3-(piperidinomethyl)phenyl]-3-[3-(3,5-dichlorobenzyl)-2-dicyanomethylideneimidazolidin-1-yl]propionamide] has an inhibition at 10 µM (results Table 6) of 68%.
Cc1cc(C)cc(CN2CCN(CCC(=O)N(Cc3nnn[nH]3)c3cccc(CN4CCCCC4)c3)C2=C(C#N)C#N)c1 [Compound 13, N-(1H-tetrazol-5-ylmethyl)-N-[3-(piperidinomethyl)phenyl]-3-[3-(3,5-dimethylbenzyl)-2-dicyanomethylideneimidazolidin-1-yl]propionamide] gave an inhibition at 10 µM (results Table 5) of 67%.
With Cc1cc(C)cc(CN2CCN(CCC(=O)N(c3cccc(CN(C)CCO)c3)C(C)C)C2=C(C#N)C#N)c1 [Compound 27, N-Isopropyl-N-[3-[(N-(2-hydroxyethyl)-N-methylamino)methyl]phenyl]-3-[3-(3,5-dimethylbenzyl)-2-dicyanomethylideneimidazolidin-1-yl]propionamide] the inhibition at 10 µM (results Table 6) was 92%.
In the case of Cc1cc(C)cc(CN2CCN(CCC(=O)N(c3cccc(CN4CCOCC4)c3)C(C)C)C2=C(C#N)C#N)c1 [Compound 22, N-Isopropyl-N-[3-(morpholinomethyl)phenyl]-3-[3-(3,5-dimethylbenzyl)-2-dicyanomethylideneimidazolidin-1-yl]propionamide], the inhibition at 10 µM (results Table 6) is reported as 93%.
With Cc1cc(C)cc(CN2CCN(CCC(=O)N(CC(N)=O)c3cccc(CN4CCCCC4)c3)C2=C(C#N)C#N)c1 [Compound 12, N-Aminocarbonylmethyl-N-[3-(piperidinomethyl)phenyl]-3-[3-(3,5-dimethylbenzyl)-2-dicyanomethylideneimidazolidin-1-yl]propionamide] the inhibition at 10 µM (results Table 5) was 84%.
With CCN(CC)Cc1cccc(N(C(=O)CCN2CCN(Cc3cc(C)cc(C)c3)C2=C(C#N)C#N)C(C)C)c1 [Compound 24, N-Isopropyl-N-[3-(diethylaminomethyl)phenyl]-3-[3-(3,5-dimethylbenzyl)-2-dicyanomethylideneimidazolidin-1-yl]propionamide] the inhibition at 10 µM (results Table 6) was 90%.
Cc1cc(C)cc(CN2CCN(CCC(=O)N(CCO)c3cccc(CN4CCCCC4)c3)C2=C(C#N)C#N)c1 [Compound 7, N-(2-Hydroxyethyl)-N-[3-(piperidinomethyl)phenyl]-3-[3-(3,5-dimethylbenzyl)-2-dicyanomethylideneimidazolidin-1-yl]propionamide] showed an inhibition at 10 µM (results Table 5) of 83%.
With “N-Isopropyl-N-[3-(piperidinomethyl)phenyl]-3-[3-(1-naphthalenylmethyl)-2-dicyanomethylidene imidazolidin-1-yl]propionamide [Compound 16]” the “% inhibition at 10 μmol/L” value (results Table 6) was 95%.
With CCCNCc1cccc(N(CC)C(=O)CCN2CCN(Cc3cc(C)cc(C)c3)C2=C(C#N)C#N)c1 [Compound 21, N-Ethyl-N-[3-(propylaminomethyl)phenyl]-3-[3-(3,5-dimethylbenzyl)-2-dicyanomethylideneimidazolidin-1-yl]propionamide] the inhibition at 10 µM (results Table 6) was 71%.
Work on CCCN(C(=O)CCN1CCN(Cc2cc(Cl)cc(Cl)c2)C1=C(C#N)C#N)c1cc(CN2CCCCC2)ccc1C [Compound 18, N-Propyl-N-[2-methyl-5-(piperidinomethyl)phenyl]-3-[3-(3,5-dichlorobenzyl)-2-dicyanomethylideneimidazolidin-1-yl]propionamide] yielded an inhibition at 10 µM (results Table 6) of 94%.
